In publication PMC6277767, “Broad and Region-Specific Impacts of the Synthetic Cannabinoid CP 55,940 in Adolescent and Adult Female Mouse Brains” (Frontiers in Molecular Neuroscience, 2018):

Tested on: CD1 female mouse brain lipidome
Assay: Brain-region lipid levels (HPLC/MS/MS lipidomics) 2 h after single i.p. 3 mg/kg CP 55,940 vs vehicle
Format: in vivo
Parameters: N-arachidonoyl phenylalanine level, Mean / N-stearoyl tryptophan level, Mean / N-stearoyl proline level, Mean / N-stearoyl leucine level, Mean / N-stearoyl phenylalanine level, Mean / N-stearoyl serine level, Mean / N-stearoyl methionine level, Mean: unit: moles per gram
Settings: hippocampus, adult, 3 mg/kg CP 55,940
Experimental: The Bloomington Institutional Animal Care and Use Committee of Indiana University reviewed and approved the animal procedures. Female mice from the CD1 strain were utilized to match our study examining THC’s effects on the brain lipidome ([Leishman et al., 2018]). Mice were given a single i.p. injection of either 3 mg/kg CP or 1:1:18 cremophor:ethanol:saline vehicle (please refer to the section “3 mg/kg CP Is Relevant for Synthetic Cannabinoid Abuse and Has Stronger Effects on the Female Mouse Brain Lipidome During Adolescence” for a justification of dose and use of female mice). Three different age groups were given injections: PND 35 and PND 50 adolescents, and adult mice (PND 113). At least eight mice in each age group received CP and at least eight received vehicle. Matching the THC study time course ([Leishman et al., 2018]), mice were sacrificed via rapid decapitation 2 h after injection. Brains were immediately removed and flash-frozen in liquid nitrogen, and then stored at -80°C until dissections were performed. Brains were dissected on an ice-cold dissection plate into the following regions: STR, HIPP, CER, THAL, CTX, HYP, MID, and STEM. These abbreviations for these brain areas will be used exclusively when discussing the results generated by these specific dissections. Each dissected area was immediately placed in liquid nitrogen and then stored at -80°C until used for lipid extraction.
Tissue extracts were performed as previously described ([Bradshaw et al., 2006]; [Stuart et al., 2013]; [Raboune et al., 2014]; [Leishman et al., 2016a],[b], [2017], [2018]). First, samples were shock frozen in liquid nitrogen, weighed, and transferred to a centrifuge tube. The mass of the largest sample was multiplied by 50 to determine how many milliliters of HPLC-grade methanol (Fisher, Fair Lawn, NJ, United States) to add. Then, samples were spiked with 500 pmol deuterium-labeled NAGly (d8NAGly; Cayman Chemical, Ann Arbor, MI, United States). Samples were placed on ice in darkness for 2 h then individually homogenized and centrifuged at 19,000 × g for 20 min at 20°C. Supernatants were diluted with HPLC water (purified in house) to make a solution of 75% water, 25% supernatant. Lipids were partially purified on C18 solid phase extraction columns (Agilent, Palo Alto, CA, United States). A series of four elutions with 1.5 mL of 60%, 75%, 85%, and 100% methanol were collected ([Stuart et al., 2013]; [Leishman et al., 2016a],[b], [2018]).
As previously described ([Bradshaw et al., 2006]; [Tan et al., 2006]; [Smoum et al., 2010]; [Stuart et al., 2013]; [Tortoriello et al., 2013]; [Raboune et al., 2014]; [Leishman et al., 2016a],[b], [2017], [2018]), samples were analyzed using an Applied Biosystems API 3000 triple quadrupole mass spectrometer with electrospray ionization (Foster City, CA, United States). Using an Agilent XDB-C18 reversed phase analytical column and optimized mobile phase gradients, 20 μL from each elution were chromatographed. Two Shimadzu 10ADvp pumps (Columbia, MD, United States) provided the pressure for gradient elution. Mobile phase A: 20% methanol, 80% water (v/v) and 1 mM ammonium acetate (Sigma, St. Louis, MO, United States). Mobile phase B: 100% methanol, 1 mM ammonium acetate. Every method run began with 0% mobile phase B, reached 100% mobile phase B flowing at 0.2 mL/min, and gradually returned to 0% mobile phase B.
This screening library will be referred to as the lipidome when discussing data from this study. HPLC/MS/MS data were analyzed using Analyst software (Applied Biosystems) ([Bradshaw et al., 2006]; [Tan et al., 2006]; [Stuart et al., 2013]; [Tortoriello et al., 2013]; [Raboune et al., 2014]; [Leishman et al., 2016a],[b], [2017], [2018]). Chromatograms (Supplementary Figure 3) were generated by determining the retention time of analytes from the analytical column with a [M-1] or [M+1] parent peak and a fragmentation peak corresponding to the programmed values. […]

## CCCCCCC(C)(C)c1ccc([C@@H]2C[C@H](O)CC[C@H]2CCCO)c(O)c1 [CP 55,940]
  6-ketoPGF1α level, Mean: 2.42E-11
  11-OH-THC level, Mean: BDL
  11-nor-9-carboxyTHC level, Mean: BDL
  Arachidonic acid level, Mean: 1.89E-09
  Cannabidiol level, Mean: BDL
  Linoleic acid level, Mean: 7.37E-10
  N- stearoyl valine level, Mean: 3.95E-14
  N-arachidonoyl GABA level, Mean: 2.86E-11
  N-arachidonoyl GABA: Direction (relative to Veh): ↓
  N-arachidonoyl GABA: Magnitude (x Veh level): 0.84 x Veh level
  N-arachidonoyl alanine level, Mean: 3.66E-12
  N-arachidonoyl alanine: Direction (relative to Veh): ↓
  N-arachidonoyl alanine: Magnitude (x Veh level): 0.76 x Veh level
  N-arachidonoyl dopamine level, Mean: BDL
  N-arachidonoyl ethanolamine level, Mean: 3.15E-11
  N-arachidonoyl glycine level, Mean: 2.03E-12
  N-arachidonoyl glycine: Direction (relative to Veh): ↓
  N-arachidonoyl glycine: Magnitude (x Veh level): 0.72 x Veh level
  N-arachidonoyl methionine level, Mean: PISSR
  N-arachidonoyl phenylalanine level, Mean: 1.12E-13
  N-arachidonoyl phenylalanine: Direction (relative to Veh): ↓
  N-arachidonoyl phenylalanine: Magnitude (x Veh level): 0.60 x Veh level
  N-arachidonoyl proline level, Mean: BDL
  N-arachidonoyl serine level, Mean: PISSR
  N-arachidonoyl taurine level, Mean: 2.3E-10
  N-arachidonoyl tryptophan level, Mean: BDL
  N-arachidonoyl tyrosine level, Mean: PISSR
  N-docosahexaenoyl GABA level, Mean: 7.15E-12
  N-docosahexaenoyl GABA: Direction (relative to Veh): ↓
  N-docosahexaenoyl GABA: Magnitude (x Veh level): 0.84 x Veh level
  N-docosahexaenoyl alanine level, Mean: PISSR
  N-docosahexaenoyl ethanolamine level, Mean: 2.18E-11
  N-docosahexaenoyl glycine level, Mean: 1.21E-13
  N-docosahexaenoyl leucine level, Mean: PISSR
  N-docosahexaenoyl methionine level, Mean: BDL
  N-docosahexaenoyl phenylalanine level, Mean: PISSR
  N-docosahexaenoyl proline level, Mean: BDL
  N-docosahexaenoyl serine level, Mean: PISSR
  N-docosahexaenoyl tryptophan level, Mean: BDL
  N-docosahexaenoyl tyrosine level, Mean: PISSR
  N-docosahexaenoyl valine level, Mean: PISSR
  N-linoleoyl GABA level, Mean: PISSR
  N-linoleoyl alanine level, Mean: 3.37E-13
  N-linoleoyl ethanolamine level, Mean: 2.58E-11
  N-linoleoyl glycine level, Mean: 1.16E-13
  N-linoleoyl leucine level, Mean: PISSR
  N-linoleoyl methionine level, Mean: BDL
  N-linoleoyl phenylalanine level, Mean: PISSR
  N-linoleoyl proline level, Mean: BDL
  N-linoleoyl serine level, Mean: 7.17E-11
  N-linoleoyl tryptophan level, Mean: BDL
  N-linoleoyl tyrosine level, Mean: PISSR
  N-linoleoyl valine level, Mean: PISSR
  N-nervonoyl valine level, Mean: BDL
  N-oleoyl GABA level, Mean: 1.55E-11
  N-oleoyl GABA: Direction (relative to Veh): ↓
  N-oleoyl GABA: Magnitude (x Veh level): 0.88 x Veh level
  N-oleoyl alanine level, Mean: 3.73E-12
  N-oleoyl dopamine level, Mean: BDL
  N-oleoyl ethanolamine level, Mean: 1.06E-10
  N-oleoyl glycine level, Mean: 5.21E-13
  N-oleoyl leucine level, Mean: 1.44E-12
  N-oleoyl methionine level, Mean: PISSR
  N-oleoyl phenylalanine level, Mean: 3.98E-13
  N-oleoyl phenylalanine: Direction (relative to Veh): ↓
  N-oleoyl phenylalanine: Magnitude (x Veh level): 0.70 x Veh level
  N-oleoyl proline level, Mean: BDL
  N-oleoyl serine level, Mean: 3.49E-10
  N-oleoyl tryptophan level, Mean: BDL
  N-oleoyl tyrosine level, Mean: 4.1E-13
  N-oleoyl valine level, Mean: PISSR
  N-palmitoyl GABA level, Mean: 2.14E-11
  N-palmitoyl alanine level, Mean: 3.64E-12
  N-palmitoyl ethanolamine level, Mean: 4.41E-11
  N-palmitoyl glycine level, Mean: 1.22E-12
  N-palmitoyl leucine level, Mean: 2.6E-12
  N-palmitoyl methionine level, Mean: 1.73E-12
  N-palmitoyl phenylalanine level, Mean: 4.39E-13
  N-palmitoyl proline level, Mean: BDL
  N-palmitoyl serine level, Mean: 1.33E-11
  N-palmitoyl tryptophan level, Mean: BDL
  N-palmitoyl tyrosine level, Mean: 9.98E-13
  N-palmitoyl valine level, Mean: 1.27E-13
  N-stearoyl GABA level, Mean: 1.57E-11
  N-stearoyl alanine level, Mean: 2.38E-12
  N-stearoyl ethanolamine level, Mean: 1.7E-11
  N-stearoyl glycine level, Mean: 2.12E-12
  N-stearoyl leucine level, Mean: 2.18E-12
  N-stearoyl phenylalanine level, Mean: 3.31E-13
  N-stearoyl proline level, Mean: BDL
  N-stearoyl serine level, Mean: 2.78E-11
  N-stearoyl serine: Direction (relative to Veh): ↓
  N-stearoyl serine: Magnitude (x Veh level): 0.85 x Veh level
  N-stearoyl tryptophan level, Mean: BDL
  N-stearoyl tyrosine level, Mean: 1.97E-13
  Oleic acid level, Mean: 1.43E-09
  PGE2: Direction (relative to Veh): ↑
  PGE2: Magnitude (x Veh level): 1.18 x Veh level
  PGE2 level, Mean: 3.37E-10
  PGF2α: Direction (relative to Veh): ↑
  PGF2α: Magnitude (x Veh level): 1.30 x Veh level
  PhosphoLEA level, Mean: 1.8E-11
